Assays:
DsRed+ cells = assay: Reprogramming of DsRed+ cells with Li followed by pTFs in the presence of HDACi; type: cell-based, human; conditions: combination with 10 mM Li for 48 hours; 5 mM SB or 1 μM SAHA during 2+1 TD
Method: Wnt-pathway activation was induced by supplementing cell medium with 10 mM Li for 48 hours. Subsequently, cells were transdifferentiated by pancreatic transcription factors (pTFs) in the presence of 5 mM sodium butyrate (SB) (FIG. 44A) or 1 μM suberanilohydroxamic acid (SAHA) (FIG. 44B). […] Bars show ratios of transcript levels of cells treated with HDACi and pTFs compared with cells treated with pTFs alone. Transcript levels were normalized to β-actin transcript levels. N=4 independent experiments with cells from two donors. * P-value<0.05.
Representative HDACi sodium-butyrate (SB) and suberanilohydroxamic acid (SAHA) were used to induce histone hyperacetylation, which is associated with permissive chromatin structure. Methods: Primary liver cells were incubated with 10 mM lithium (Li) for 48 hours to activate Wnt signaling. Subsequently, cells were contacted with pancreatic transcription factors according to the “2+1” transdifferentiation protocol described in Example 12 in the presence of 5 mM SB (Na-Butyrate) or 1 μM SAHA.

eGFP+ cells [1] = assay: Transdifferentiation of DKK-treated eGFP+ cells in the presence of sodium butyrate; type: cell-based, human; conditions: DKK 3 μg/ml for 48 hours, then pTFs with 5 mM sodium butyrate
Method: Wnt-pathway activation was induced by supplementing cell medium with 10 mM Li for 48 hours. Subsequently, cells were transdifferentiated by pancreatic transcription factors (pTFs) in the presence of 5 mM sodium butyrate (SB) (FIG. 44A) or 1 μM suberanilohydroxamic acid (SAHA) (FIG. 44B). In the GFP+ cell population, a similar effect was observed when Wnt-pathway was inhibited by supplementing serum-based medium with 3 μg/ml Dickkopf (DKK) for 48 hours followed by the transdifferentiation of cells by pTFs in the presence of 5 mM sodium butyrate (SB) (FIG. 44C). Bars show ratios of transcript levels of cells treated with HDACi and pTFs compared with cells treated with pTFs alone. Transcript levels were normalized to β-actin transcript levels. N=4 independent experiments with cells from two donors. * P-value<0.05.
Similarly, SB (HDAC inhibitor) treatment alleviated the effect of Wnt signaling inhibition of eGFP+ cells (FIG. 44C).

adult human liver cells = assay: Glucose-regulated insulin secretion (radioimmunoassay) with Ad-CMV-Pdx-1 supplemented with Wnt3A or DKK3; type: cell-based; conditions: Ad-CMV-Pdx-1 and soluble factors, 5 days; 2 mM then 17.5 mM glucose
Method: Adult human liver cells were treated with Ad-CMV-Pdx-1 and soluble factors, as previously reported, supplemented with Wnt3A (50 ng/ml R&D or DKK3 (3 μg/ml R&D). After 5 days, insulin secretion was analyzed by static incubations at low followed by high glucose concentrations (2 mM and 17.5 mM glucose in KRB, respectively). Insulin secretion is measured using the human insulin radioimmunoassay kit (DPC; n≥8 from 3 different experiments) and compared to untreated cells (Cont). *p<0.01 compared to Ad-CMV-Pdx-1 alone, using Student's t-test analysis.
C-peptide and insulin secretion were measured by static incubations of primary cultures of adult liver cells 6 days after the initial exposure to the viral treatment, as described (Sapir et al, (2005) ibid; Meivar-Levy et al, (2007) ibid; Aviv et al, (2009) ibid). The glucose-regulated C-peptide secretion was measured at 2 mM and 17.5 mM glucose, which was determined by dose-dependent analyses to maximally induce insulin secretion from transdifferentiated liver cells, without having adverse effects on treated cells function (Sapir et al, (2005) ibid; Meivar-Levy et al, (2007) ibid; Aviv et al, (2009) ibid). C-peptide secretion was detected by radioimmunoassay using the human C-peptide radioimmunoassay kit (Linco Research, St. Charles, Mo.; <4% cross-reactivity to human proinsulin). […]

eGFP+ cells [2] = assay: Pancreatic hormones gene expression (real-time RT-PCR) in eGFP+ cells supplemented with DKK3; type: cell-based, human; conditions: Ad-CMV-Pdx-1, 5 days, DKK3 0.5 μg/ml
Method: Pancreatic hormones gene expression was studied by Quantitative real-time RT-PCR compared to the control-treated cells.
Total RNA was isolated and cDNA was prepared and amplified, as described previously (Ber et al, (2003) J Biol Chem 278: 31950-31957; Sapir et al, (2005) ibid). Quantitative real-time RT-PCR was performed using ABI Step one plus sequence Detection system (Applied Biosystems, CA, USA), as described previously (Sapir et al, (2005) ibid; Meivar-Levy et al, (2007) ibid; Aviv et al, (2009) J Biol Chem 284: 33509-33520).

human liver cultures = assay: Glucose stimulated insulin secretion with WNT3A or DKK added during TD; type: cell-based; conditions: added during TD (ectopic pTFs); measured five days later
Method: FIGS. 41A-41G show active WNT signaling controls the activation of the pancreatic lineage in liver. (FIG. 41A) Efficient reprogramming of liver to pancreas relies on active WNT signaling. WNT signaling was activated by Wnt3A, or, alternatively, blocked by DKK, concomitantly to ectopic pTFs expression (TD) in human liver cultures. Glucose stimulated Insulin secretion was measured five days later. Results are average and standard error (SE) of 3-6 repeats from 3 different donors. * P-value<0.05; ** P-value<0.005; *** P-value<0.0005. […] Efficiency of reprogramming was measured by the activation of pancreatic genes expression and relative insulin secretion induced by high glucose concentrations (17.5 mM). […]
100,000 cells/well were seeded in a 6-wells plate in a low glucose DMEM media supplemented with 2 mM L-glutamine, 10% serum, antibiotics, 10 mM Nicotinamide, 20 ng/ml EGF, and 5 nM exendin4. […] After 48 hours the cells were harvested, counted, and 100,000 cells were infected with 50MOI of Ad-MafA and re-plated as above. 72 hours later the cells were analyzed for gene expression and insulin secretion, as detailed below. […]
Glucose regulated insulin secretion (FIGS. 38D and 38F, and 41A) was measured by radioimmunoassay kit (DPC, Los-Angeles, Calif.) as described previously (Berneman-Zeitouni D et al., ibid). […]

Molecule: O=C(CCCCCCC(=O)Nc1ccccc1)NO [SAHA, suberanilohydroxamic acid]
- reprogramming of DsRed+ cells (expression of PDX-1, Isl-1, Pax-4, Nkx6.1) (DsRed+ cells): increased reprogramming

Molecule: CCCC(=O)[O-].[Na+] [SB, sodium-butyrate]
- reprogramming of DsRed+ cells (expression of PDX-1, Isl-1, Pax-4, Nkx6.1) (DsRed+ cells): increased reprogramming
- effect of Wnt signaling inhibition of eGFP+ cells (eGFP+ cells [1]): alleviated

Molecule: DKK3: Dickkopf-related protein 3 (R&D), an inhibitor of the Wnt signaling pathway
- Pdx-1-induced glucose-regulated insulin secretion (adult human liver cells): completely abolished
- transdifferentiation capacity of eGFP cells (eGFP+ cells [2]): totally abolished

B1: Wnt3A: WNT3A protein (R&D), Wnt-pathway agonist (protein, UniProt P56704 19-352, looked up)
Protein Wnt-3a: SYPIWWSLAVGPQYSSLGSQPILCASIPGLVPKQLRFCRNYVEIMPSVAEGIKIGIQECQHQFRGRRWNCTTVHDSLAIFGPVLDKATRESAFVHAIASAGVAFAVTRSCAEGTAAICGCSSRHQGSPGKGWKWGGCSEDIEFGGMVSREFADARENRPDARSAMNRHNNEAGRQAIASHMHLKCKCHGLSGSCEVKTCWWSQPDFRAIGDFLKDKYDSASEMVVEKHRESRGWVETLRPRYTYFKVPTERDLVYYEASPNFCEPNPETGSFGTRDRTCNVSSHGIDGCDLLCCGRGHNARAERRREKCRCVFHWCCYVSCQECTRVYDVHTCK
- Pdx-1-induced glucose-regulated insulin secretion (adult human liver cells): increased
- glucose-regulated insulin secretion (human liver cultures): marked increase
